How the values were obtained:
Italian ryegrass = assay: Test F postemergence; format: in vivo, Lolium multiflorum; details: scale 0 to 100
From the text: (§1) Seeds of plant species selected from corn (Zea mays), soybean (Glycine max), velvetleaf (Abutilon theophrasti), lambsquarters (Chenopodium album), wild poinsettia (Euphorbia heterophylla), pigweed, palmer (palmer pigweed, Amaranthus palmeri), common waterhemp (Amaranthus rudis), surinam grass (Brachiaria decumbens), large crabgrass (Digitaria sanguinalis), crabgrass, Brazil (Brazilian crabgrass, Digitaria horizontalis), fall panicum (Panicum dichotomiflorum), giant foxtail (Setaria faberii), green foxtail (Setaria viridis), goosegrass (Eleusine indica), johnsongrass (Sorghum halepense), common ragweed (Ambrosia elation), barnyardgrass (Echinochloa crus-galli), southern sandbur (Cenchrus echinatus), arrowleaf sida (Sida rhombifolia), Italian ryegrass (Lolium multiflorum), dayflower, VA (Virginia (VA) dayflower, Commelina virginica), field bindweed (Convolvulus arvensis), cocklebur (common cocklebur, Xanthium strumarium), morningglory (Ipomoea coccinea), nightshade (eastern black nightshade, Solanum ptycanthum), kochia (Kochia scoparia), yellow nutsedge (Cyperus esculentus), and hairy beggarticks (Bidens pilosa), were planted into a silt loam soil and treated preemergence with test chemicals formulated in a non-phytotoxic solvent mixture which included a surfactant.
(§2) At the same time, plants from these crop and weed species and also horseweed (Canada horseweed, Conyza canadensis), smartweed (ladysthumb smartweed, Polygonum persicaria), waterhemp_RES1, (ALS & Triazine resistant common waterhemp, Amaranthus rudis), and waterhemp_RES2, (ALS & HPPD resistant common waterhemp, Amaranthus rudis) were treated with postemergence applications of test chemicals formulated in the same manner. Plants ranged in height from 2 to 18 cm for postemergence treatments (1- to 4-leaf stage). Treated plants and controls were maintained in a greenhouse for 14 to 21 days, after which time all species were compared to controls and visually evaluated. Plant response ratings, summarized in Table F, are based on a scale of 0 to 100 where 0 is no effect and 100 is complete control. A dash (-) response means no test result.

foxtail, green = assay: Test E preemergence; format: in vivo, Setaria viridis; details: 21 days, scale 0 to 100
From the text: (§3) Seeds of plant species selected from bermudagrass (Cynodon dactylon), Surinam grass (Brachiaria decumbens), crabgrass, large (large crabgrass, Digitaria sanguinalis), crabgrass, naked (naked crabgrass, Digitaria nuda), foxtail, green (green foxtail, Setaria viridis), johnsongrass (Sorghum halepense), kochia (Kochia scoparia), morningglory (pitted morningglory, Ipomoea lacunosa), nutsedge, purple (purple nutsedge, Cyperus rotundus), ragweed (common ragweed, Ambrosia elation), mustard, black (black mustard, Brassica nigra), guineagrass (Panicum maximum), dallisgrass (Paspalum dilatatum), barnyardgrass (Echinochloa crus-galli), sandbur (southern sandbur, Cenchrus echinatus), sowthistle (common sowthistle, Sonchus oleraceous), ryegrass, Italian (Italian ryegrass, Lolium multiflorum), signalgrass (broadleaf signalgrass, Brachiaria platyphylla), dayflower, VA (Virginia (VA) dayflower, Commelina virginica), bluegrass (annual bluegrass, Poa annua), quackgrass (Elytrigia repens), mallow (common mallow, Malva sylvestris), buckwheat, wild (wild buckwheat, Polygonum convolvulus), leafy spurge (Euphorbia esula), common chickweed (Stellaria media), wild poinsettia (Euphorbia heterophylla), pigweed, palmer (palmer pigweed, Amaranthus palmeri), and pigweed (redroot pigweed, Amaranthus retroflexus) were planted into a blend of loam soil and sand and treated preemergence with test chemicals formulated in a non-phytotoxic solvent mixture which included a surfactant.
(§4) Treated plants and controls were maintained in a greenhouse for 21 days, after which time all species were compared to controls and visually evaluated. Plant response ratings, summarized in Table E, are based on a scale of 0 to 100 where 0 is no effect and 100 is complete control. A dash (-) response means no test result.

smartweed = assay: Test F postemergence; format: in vivo, Polygonum persicaria; details: 500 g ai/ha, scale 0 to 100
From the text: as §1, §2

crabgrass, large = assay: Test E preemergence; format: in vivo, Digitaria sanguinalis; details: 21 days, scale 0 to 100
From the text: as §3, §4

bluegrass = assay: Test E preemergence; format: in vivo, Poa annua; details: 21 days, scale 0 to 100
From the text: as §3, §4

crabgrass, Brazil = assay: Test F postemergence; format: in vivo, Digitaria horizontalis; details: scale 0 to 100
From the text: as §1, §2

nutsedge, purple = assay: Test E preemergence; format: in vivo, Cyperus rotundus; details: 21 days, scale 0 to 100
From the text: as §3, §4

Row | SMILES | Plant response rating, Italian Ryegrass (Italian ryegrass; Postemergence, 31 g ai/ha) | Plant response rating, Italian Ryegrass (Italian ryegrass; Postemergence, 125 g ai/ha) | Plant response rating, Italian Ryegrass (Italian ryegrass; Postemergence, 250 g ai/ha) | Plant response rating, Italian Ryegrass (Italian ryegrass; postemergence, 62 g ai/ha) | Plant response rating, Italian Ryegrass (Italian ryegrass; postemergence, 500 g ai/ha) | Plant response rating, Foxtail, Green (foxtail, green; 16 g ai/ha) | Plant response rating, Foxtail, Green (foxtail, green; 31 g ai/ha) | Plant response rating, Foxtail, Green (foxtail, green; 62 g ai/ha) | Plant response rating, Foxtail, Green (foxtail, green; 125 g ai/ha) | Plant response rating, Foxtail, Green (foxtail, green; 250 g ai/ha) | Plant response rating, Smartweed (smartweed) | Plant response rating, Crabgrass, Large (crabgrass, large; 16 g ai/ha) | Plant response rating, Crabgrass, Large (crabgrass, large; 31 g ai/ha) | Plant response rating, Crabgrass, Large (crabgrass, large; 62 g ai/ha) | Plant response rating, Crabgrass, Large (crabgrass, large; 125 g ai/ha) | Plant response rating, Crabgrass, Large (crabgrass, large; 250 g ai/ha) | Plant response rating, Bluegrass (bluegrass; 16 g ai/ha) | Plant response rating, Bluegrass (bluegrass; 31 g ai/ha) | Plant response rating, Bluegrass (bluegrass; 62 g ai/ha) | Plant response rating, Bluegrass (bluegrass; 125 g ai/ha) | further results
1 | CCOc1cc(C(=O)NCC(F)(F)F)nn1Cc1ccnc(C(F)(F)F)c1 [Compound 104] | 0 | 35 | 60 | 15 | 85 | 100 | 100 | 100 | 100 | 100 | 98 | 100 | 100 | 100 | 100 | 100 | 85 | 100 | 100 | 100 | Plant response rating, Bluegrass (bluegrass; 250 g ai/ha): 100; Plant response rating, Crabgrass, Brazil (crabgrass, Brazil; Postemergence, 31 g ai/ha): 40; Plant response rating, Crabgrass, Brazil (crabgrass, Brazil; Postemergence, 125 g ai/ha): 60; Plant response rating, Crabgrass, Brazil (crabgrass, Brazil; Postemergence, 250 g ai/ha): 90; Plant response rating, Crabgrass, Brazil (crabgrass, Brazil; postemergence, 62 g ai/ha): 50; Plant response rating, Crabgrass, Brazil (crabgrass, Brazil; postemergence, 500 g ai/ha): 95; Plant response rating, Nutsedge, Purple (nutsedge, purple; 16 g ai/ha): 35; Plant response rating, Nutsedge, Purple (nutsedge, purple; 31 g ai/ha): 80; Plant response rating, Nutsedge, Purple (nutsedge, purple; 62 g ai/ha): 90; Plant response rating, Nutsedge, Purple (nutsedge, purple; 125 g ai/ha): 98; Plant response rating, Nutsedge, Purple (nutsedge, purple; 250 g ai/ha): 100
2 | CCCc1cc(C(=O)NCC(F)(F)F)nn1Cc1ccnc(C(F)(F)F)c1 [Compound 105] | 0 | 30 | 65 | 15 | 90 | 95 | 98 | 100 | 100 | 100 | 100 | 98 | 100 | 100 | 100 | 100 | 40 | 70 | 100 | 100 | Plant response rating, Bluegrass (bluegrass; 250 g ai/ha): 100; Plant response rating, Crabgrass, Brazil (crabgrass, Brazil; Postemergence, 31 g ai/ha): 30; Plant response rating, Crabgrass, Brazil (crabgrass, Brazil; Postemergence, 125 g ai/ha): 50; Plant response rating, Crabgrass, Brazil (crabgrass, Brazil; Postemergence, 250 g ai/ha): 70; Plant response rating, Crabgrass, Brazil (crabgrass, Brazil; postemergence, 62 g ai/ha): 35; Plant response rating, Crabgrass, Brazil (crabgrass, Brazil; postemergence, 500 g ai/ha): 90; Plant response rating, Nutsedge, Purple (nutsedge, purple; 16 g ai/ha): 40; Plant response rating, Nutsedge, Purple (nutsedge, purple; 31 g ai/ha): 70; Plant response rating, Nutsedge, Purple (nutsedge, purple; 62 g ai/ha): 85; Plant response rating, Nutsedge, Purple (nutsedge, purple; 125 g ai/ha): 85; Plant response rating, Nutsedge, Purple (nutsedge, purple; 250 g ai/ha): 95
